Results from PMC8306930, “A Comparative Analysis of the In Vitro Anticancer Activity of Iridium(III) {η^5-C5Me4R} Complexes with Variable R Groups” (International Journal of Molecular Sciences, 2021).

Experiments:
[1] = test system: B16 mouse melanoma cells; assay: MTT viability assay, B16; assay type: cell-based; conditions: B16, 72 h exposure, mean ± SD
Description: (§1) The rat astrocytoma C6 cell line and murine melanoma B16 cell line were kindly gifted by Dr. L. Harhaji–Trajkovic, Institute for Biological Research “Sinisa Stankovic”—National Institute of Republic of Serbia (IBISS), and from Dr. Sinisa Radulovic (Institute for Oncology and Radiology of Serbia), respectively. Human colorectal (SW620 and HCT116), breast (MCF-7), and ovarian (A2780) cancer cell lines and non-malignant fibroblast cell line (MRC5) were purchased from the American Type Culture Collection (ATCC, Manassas, Virginia, USA). […] For viability assays, cells were seeded in listed densities/well: B16 and C6: 3 × 10^3; SW620: 9 × 10^3; A2780 and HCT116: 5 × 10^3; MCF-7: 8 × 10^3 and MRC5: 7 × 10^3. For flow cytometry, A2780 cells were seeded at 2 × 10^5 density/well in 6-well plates. Peritoneal macrophages were collected from the peritoneal cavity of C57BL/6 mice from the animal facility of IBISS by cavity lavage with ice-cold PBS. […] Macrophages were counted, seeded at 2 × 10^5 cells/well in 96-well plates for viability assay, and then left for 2 h to adhere. Before treatment, non-adherent cells were removed. The handling of animals and protocol for obtaining macrophages is in the agreement with the rules of the European Union and approved by the Institutional Animal Care and Use Committee at IBISS (No. 02-09/16).
(§2) Stock solutions of 1b, 1c, 1d, and 1e were prepared in ethanol at concentration of 20 mM and kept at −20 °C, while 10 mM stock solution of cisplatin was prepared in DMF just before the usage. Desired final concentrations were obtained by dilution in culture medium.
(§3) Cells were treated with various concentrations (up to 50 or 100 µM) of the above-mentioned complexes for 72 h. For the detection of mitochondrial respiration, cells were cultivated in the presence of MTT staining solution (0.5 mg/mL) for approximately 1 h at 37 °C. The dye was then discarded, and the formed formazan crystals (purple) were dissolved in DMSO. For an evaluation of viable attached cells, cells were fixed with 4% PFA for 10 min at room temperature, and subsequently stained for 15 min with 0.02% CV solution. […] The absorbance was measured with an automated microplate reader at 540 nm, with a reference wavelength of 670 nm. The IC50 values were calculated using a four-parameter logistic function and presented as mean ± SD from three independent experiments.

[2] = test system: B16 mouse melanoma cells; assay: CV (crystal violet) viability assay, B16; assay type: cell-based; conditions: B16, 72 h exposure, mean ± SD
Description: as §1, §2, §3

[3] = test system: SW620 human colorectal adenocarcinoma cells; assay: MTT viability assay, SW620; assay type: cell-based; conditions: SW620, 72 h exposure, mean ± SD
Description: as §1, §2, §3

[4] = test system: SW620 human colorectal adenocarcinoma cells; assay: CV viability assay, SW620; assay type: cell-based; conditions: SW620, 72 h exposure, mean ± SD
Description: as §1, §2, §3

[5] = test system: C6 rat glioma cells; assay: MTT viability assay, C6; assay type: cell-based; conditions: C6, 72 h exposure, mean ± SD
Description: as §1, §2, §3

[6] = test system: C6 rat glioma cells; assay: CV viability assay, C6; assay type: cell-based; conditions: C6, 72 h exposure, mean ± SD
Description: as §1, §2, §3

[7] = test system: MCF-7 human breast cancer cells; assay: MTT viability assay, MCF-7; assay type: cell-based; conditions: MCF-7, 72 h exposure, mean ± SD
Description: as §1, §2, §3

[8] = test system: MCF-7 human breast cancer cells; assay: CV viability assay, MCF-7; assay type: cell-based; conditions: MCF-7, 72 h exposure, mean ± SD
Description: as §1, §2, §3

[9] = test system: HCT116 human colorectal carcinoma cells; assay: MTT viability assay, HCT116; assay type: cell-based; conditions: HCT116, 72 h exposure, mean ± SD
Description: as §1, §2, §3

[10] = test system: HCT116 human colorectal carcinoma cells; assay: CV viability assay, HCT116; assay type: cell-based; conditions: HCT116, 72 h exposure, mean ± SD
Description: as §1, §2, §3

[11] = test system: A2780 human ovarian cancer cells; assay: MTT viability assay, A2780; assay type: cell-based; conditions: A2780, 72 h exposure, mean ± SD
Description: as §1, §2, §3

[12] = test system: A2780 human ovarian cancer cells; assay: CV viability assay, A2780; assay type: cell-based; conditions: A2780, 72 h exposure, mean ± SD
Description: as §1, §2, §3

[13] = test system: MRC5 human fibroblast cells; assay: MTT viability assay, MRC5; assay type: cell-based; conditions: MRC5, 72 h exposure, mean ± SD
Description: as §1, §2, §3

[14] = test system: MRC5 human fibroblast cells; assay: CV viability assay, MRC5; assay type: cell-based; conditions: MRC5, 72 h exposure, mean ± SD
Description: as §1, §2, §3

[15] = Stability in D2O mixtures by 1H NMR; assay type: physicochemical; conditions: for Variation of 1H NMR spectra on storage: acetone-d6/D2O 2:1 (1b,d) or methanol-d4/D2O 2:1 (1c), 72 h at 37 °C, progressive precipitation
Description: Complexes were dissolved in acetone-d6/D2O 2:1 (1b,d), DMSO-d6/D2O 2:1 (2a–d and 3), or methanol-d4/D2O 2:1 (1c) ([Ir] ≈ 10^−3 mol L^−1), then dimethyl sulfone (0.05 mL, 0.164 mmol) was added as internal standard. The mixtures were filtered through a celite pad, and the filtrated solutions were analyzed by ^1H NMR spectroscopy.
The solutions were then stored for 72 h at 37 °C, and new NMR analyses were subsequently performed.

[16] = test system: panel of six human and rodent cancer cell lines and MRC5; assay: Cytotoxic activity over the whole cell line panel (MTT and CV); assay type: cell-based; conditions: 72 h; for Cytotoxic activity in words: all investigated cell lines
Description: Cells were treated with various concentrations (up to 50 or 100 µM) of the above-mentioned complexes for 72 h. For the detection of mitochondrial respiration, cells were cultivated in the presence of MTT staining solution (0.5 mg/mL) for approximately 1 h at 37 °C. The dye was then discarded, and the formed formazan crystals (purple) were dissolved in DMSO. For an evaluation of viable attached cells, cells were fixed with 4% PFA for 10 min at room temperature, and subsequently stained for 15 min with 0.02% CV solution. Cells were then washed with tap water, dried in air, and the CV dye was dissolved in 33% acetic acid. The absorbance was measured with an automated microplate reader at 540 nm, with a reference wavelength of 670 nm. The IC50 values were calculated using a four-parameter logistic function and presented as mean ± SD from three independent experiments.

[17] = test system: primary mouse peritoneal cells; assay: Viability of primary mouse peritoneal cells (macrophages); assay type: cell-based
Description: The rat astrocytoma C6 cell line and murine melanoma B16 cell line were kindly gifted by Dr. L. Harhaji–Trajkovic, Institute for Biological Research “Sinisa Stankovic”—National Institute of Republic of Serbia (IBISS), and from Dr. Sinisa Radulovic (Institute for Oncology and Radiology of Serbia), respectively. Human colorectal (SW620 and HCT116), breast (MCF-7), and ovarian (A2780) cancer cell lines and non-malignant fibroblast cell line (MRC5) were purchased from the American Type Culture Collection (ATCC, Manassas, Virginia, USA). […] For viability assays, cells were seeded in listed densities/well: B16 and C6: 3 × 10^3; SW620: 9 × 10^3; A2780 and HCT116: 5 × 10^3; MCF-7: 8 × 10^3 and MRC5: 7 × 10^3. For flow cytometry, A2780 cells were seeded at 2 × 10^5 density/well in 6-well plates. […] Macrophages were counted, seeded at 2 × 10^5 cells/well in 96-well plates for viability assay, and then left for 2 h to adhere. […]
Cells were treated with various concentrations (up to 50 or 100 µM) of the above-mentioned complexes for 72 h. […] The absorbance was measured with an automated microplate reader at 540 nm, with a reference wavelength of 670 nm. The IC50 values were calculated using a four-parameter logistic function and presented as mean ± SD from three independent experiments.

[18] = test system: A2780 cells; assay: Mitochondrial membrane potential, DiOC6(3) flow cytometry; assay type: cell-based, human; conditions: A2780, IC50 doses, 24 h, in comparison with untreated cells
Description: (§4) Experiments were carried out in three independent replicates.

[19] = test system: A2780 cells; assay: Senescence, FDG assay of beta galactosidase activity, flow cytometry; assay type: cell-based, human; conditions: A2780, IC50 doses, 48 h, in comparison to the control
Description: as §4

[20] = test system: A2780 cells; assay: Intracellular nitric oxide, DAF-FM flow cytometry; assay type: cell-based, human; conditions: A2780, IC50 doses, 48 h, with respect to untreated cultures
Description: as §4

[21] = test system: A2780 cells; assay: ROS/RNS, DHR123 flow cytometry; assay type: cell-based, human; conditions: A2780, IC50 doses, 48 h, DHR123, with respect to untreated cultures
Description: as §4

[22] = test system: A2780 cells; assay: Cell proliferation, CFSE flow cytometry; assay type: cell-based, human; conditions: A2780, IC50 doses, 72 h of incubation
Description: as §4

[23] = test system: A2780 cells; conditions: A2780, IC50 doses, 48 h, AnnV/PI
Description: as §4

[24] = test system: A2780 cells; assay: Autophagosomes, acridine orange flow cytometry; assay type: cell-based, human; conditions: A2780, IC50 doses, 48 h, AO
Description: as §4

Row | Compound | IC50 [1] | IC50 [2] | IC50 [3] | IC50 [4] | IC50 [5] | IC50 [6] | IC50 [7] | IC50 [8] | IC50 [9] | IC50 [10] | IC50 [11] | IC50 [12] | IC50 [13] | IC50 [14] | Variation of 1H NMR spectra on storage [15] | Cytotoxic activity in words [16] | further results
1 | N.N.[Cl][Pt][Cl] [Cisplatin, cisplatin, reference compound] | 5.6 ± 0.2 µM | 11.6 ± 0.3 µM | 11.6 ± 0.1 µM | 11 ± 3 µM | 0.6 ± 0.2 µM | 1.2 ± 0.1 µM | 0.8 ± 0.2 µM | 1.2 ± 0.3 µM | 1.5 ± 0.1 µM | 8 ± 0.7 µM | 1.9 ± 0.2 µM | 3.8 ± 0.5 µM | 0.6 ± 0.2 µM | 0.8 ± 0.1 µM |  |  | 
2 | Cc1[cH-]c(C)c(C)c1C.Cc1[cH-]c(C)c(C)c1C.[Cl-].[Cl-].[Cl-].[Cl-].[Ir+3].[Ir+3] [Complex 1b] | > 50 µM | > 50 µM | > 50 µM | > 50 µM | > 50 µM | > 50 µM | > 50 µM | > 50 µM | > 50 µM | > 50 µM | > 50 µM | > 50 µM | > 50 µM | > 50 µM | no significant variations | substantially inactive | 
3 | CCC[c-]1c(C)c(C)c(C)c1C.CCC[c-]1c(C)c(C)c(C)c1C.[Cl-].[Cl-].[Cl-].[Cl-].[Ir+3].[Ir+3] [Complex 1c] | 28 ± 4 µM | 44 ± 8 µM | 27 ± 2 µM | 45 ± 8 µM | 27 ± 3 µM | 54 ± 5 µM | 28 ± 5 µM | 55 ± 8 µM | 30 ± 4 µM | 38 ± 3 µM | 13 ± 1 µM | 39 ± 7 µM | 36 ± 2 µM | > 50 µM | no significant variations | moderate cytotoxicity | 
4 | CC1=C(C)[C](c2ccc(F)cc2)([Ir]([Cl])[Cl])C(C)=C1C.CC1=C(C)[C](c2ccc(F)cc2)([Ir]([Cl])[Cl])C(C)=C1C [Complex 1d] | 20.4 ± 0.1 µM | 28.1 ± 0.1 µM | 8 ± 2 µM | 18.5 ± 0.4 µM | 34 ± 2 µM | 49 ± 1 µM | 9.2 ± 0.5 µM | 30 ± 0.4 µM | 8.1 ± 0.7 µM | 14.5 ± 1.5 µM | 16 ± 0.3 µM | 20.2 ± 0.3 µM | 19.1 ± 0.2 µM | 22.2 ± 0.1 µM | no significant variations | moderate cytotoxicity | 
5 | CC1=C(C)[C](c2ccc(O)cc2)([Ir]([Cl])[Cl])C(C)=C1C.CC1=C(C)[C](c2ccc(O)cc2)([Ir]([Cl])[Cl])C(C)=C1C [Complex 1e] | > 100 µM | > 100 µM | > 100 µM | > 100 µM | 90 ± 14 µM | > 100 µM | 88 ± 12 µM | 94 ± 8 µM | 80 ± 3 µM | 79 ± 8 µM |  |  | > 100 µM | > 100 µM |  | substantially inactive | Behaviour in aqueous media in the presence of DMSO ([15]; aqueous media with DMSO): rapid conversion into 3; IC50 ([16]; cell lines on which 1e is active, read-out: IC50 values, range over sensitive cell lines): 80 to 90 µM
6 | CS(C)=O.Cc1c(C)c(C)[c-](-c2ccc(O)cc2)c1C.[Cl][Ir+][Cl] [Complex 3, (4-(2,3,4,5-tetramethylcyclopenta-1,4-dien-1-yl)phenol)dimethylsulfoxide iridium(III)dichloride] | > 100 µM | > 100 µM | > 100 µM | > 100 µM | > 100 µM | > 100 µM | > 100 µM | > 100 µM | > 100 µM | > 100 µM |  |  | > 100 µM | > 100 µM |  | inactive | Fraction of unaltered compound ([15]; DMSO-d6/D2O 2:1, 72 h at 37 °C, 1H NMR, dimethyl sulfone standard): 98%
7 | tetramethylcyclopentadienyl)(2-phenylpyridine)iridium(III)chloride [Complex 2b] | 2.5 ± 0.2 µM | 3 ± 0.1 µM | 2.6 ± 0.1 µM | 2.9 ± 0.5 µM | 2.4 ± 0.3 µM | 2.6 ± 0.1 µM | 8.6 ± 0.2 µM | 37 ± 3 µM | 8 ± 0.2 µM | 7 ± 2 µM | 5.5 ± 0.5 µM | 4.4 ± 0.6 µM | 6.7 ± 0.2 µM | 6 ± 2 µM |  |  | Effect on viability of primary mouse peritoneal cells [17]: did not affect viability; Mitochondrial membrane hyperpolarization [18]: 32.3%; Increase of beta galactosidase activity [19]: 38.4%; Increase of intracellular level of NO [20]: 40.9%; Increase of intracellular levels of H2O2, HOCl and ONOO− (in total) [21]: 46.4%; Effect on cell proliferation [22]: inhibition of cell proliferation; Induction of apoptotic cell death [23]: modest induction; High percentage of autophagosomes [24]: not recognized
